# Measurements from US20230047816A1 (priority 2018, published 2023).
# “Also recorded” adds a separate entry of the source.
# Experiments:
# primary neurons = assay: Mitochondrial ROS in NMDA and glutamate excitotoxic models; format: cell-based; settings: 0.01 μM, triggered by NMDA and glutamate, FIG. 4B
# [1] = test system: mouse primary cortical neurons; assay: Apoptosis of neurons induced by NMDA and glutamate; format: cell-based
# [2] = test system: mouse primary cortical neurons; assay: NADPH/NADP upon excitotoxic stimuli; format: cell-based; settings: glutamate 100 μM 10 minutes, then inhibitor 0.01 μM 24 hours
# Experimental: Neurons were then washed and further incubated in culture medium with the PFKFB3 inhibitors for 24 hours. A colorimetric NADP/NADPH assay kit (Abcam) was used. Cells were resuspended in 500 μl of NADP/NADPH extraction buffer, vortexed and centrifuged at 14,000 rpm for 5 minutes to remove insoluble material. The supernatant was used for NADPH +plus NADP+ measurement. NADPH was determined in 200 μl of the supernatant, after […] 60° C. for 30 minutes to decompose NADP+. Actual NADP and NADPH+ concentrations were calculated by extrapolating values to a NADPH standard curve (0-100 pmol/well).
# [3] = test system: MCAO model of brain ischemia; assay: MCAO model of brain ischemia, rota-rod test; format: in vivo, C57BL/6-J mice; settings: 60 mg/kg bolus via jugular vein after reperfusion; 30 mins occlusion; test 24 hours after MCAO
# Experimental: For the MCAO model of brain ischemia, 10 weeks-old male C57BL/6-J mice were used (n=8 animals per condition) following a published protocol (1,2). Mice were anesthetized with 4% (vol/vol) Sevoflurane in a mixture of ⅓ O2 and ⅔ N2O using a vaporizer. After the induction of anesthesia, Sevoflurane was reduced to 3% (vol/vol). The body temperature was maintained at 36.5° C. during the surgery. A laser-Doppler flow probe attached to a flowmeter was located over the thinned skull in the MCAO area (4 mm lateral to bregma) to monitor the relative cerebral brain flow during the experiment. Under operating microscope, the common, external and internal carotid arteries were dissected from connective tissue through a midline neck incision. The common carotid artery (CCA) was carefully dissected from the surrounding nerves with caution to avoid harming of the vagal nerve. A suture monofilament was introduced from the lumen of the external carotid artery (ECA) into the internal carotid artery (ICA) to a distance of 9-10 mm beyond the CCA bifurcation, in order to occlude the origin of middle cerebral artery (MCA). The filament was removed 30 mins after occlusion. AZ67 or compound 1 (60 mg/kg of body weight) or vehicle were administered in a bolus (200 μl) via the jugular vein immediately after reperfusion. […] The latency to fall was determined and expressed in seconds.
# [4] = test system: iPSC-derived neural precursor cells (NPC) from CLN7 patients; assay: Patient-derived neural precursor cells, ATP5A immunocytochemistry; format: cell-based, human
# Experimental: iPSC were generated from two CLN7 patients (Pa380 and Pa474). then characterized and differentiated to NPC as previously described39. […]
# NPCs were fixed with 100% iced-cold methanol for 5 min and incubated in blocking solution (1% (v/v) normal goat serum, 0.1% (w/v) bovine serum albumin (BSA), 0.1% (v/v) Triton X-100 in DPBS). […] Slides were mounted with VECTASHIELD Mounting Medium with DAPI, incubated for 24 h at 4° C. and imaged with a Zeiss Axio Imager M2 fluorescence microscope or under an inverted microscope (Nikon; Eclipse Ti-E) equipped with a pre-centred fibre illuminator (Nikon; Intensilight C-HGFI), B/W CCD digital camera (Hamamatsu; ORCA-E.R.). Fluorescence quantification was performed. after appropriate thresholding using the ImageJ software (NIH). The pixel intensity profile of ATP5A immunodecoration was analyzed across the maximal axis of the cell that departs from the nucleus, using the plot profile plugin of ImageJ software. […]
# influenza A H1N1 in MDCK = format: cell-based; settings: 0, 0.1 μM, 1 μM, 10 μM and 100 μM
smiles,measurement,setting,value
"Cc1noc(C)c1Cn1cc(C#N)c2cc(Oc3ccc(NC(=O)[C@@H]4CCCN4)cc3)ccc21 [AZ67, (2S)-N-[4-({3-cyano-1-[(3,5-dimethyl-1,2-oxazol-4-yl)methyl]-1H-indol-5-yl}oxy)phenyl]pyrrolidine-2-carboxamide]",increase in mitochondrial ROS,primary neurons,significantly prevented
same,apoptotic neuronal death increased by glutamate and NMDA,[1]; FIG. 5,significantly prevented
same,neuroprotection under PFK1-M overexpression,"[1]; PFK1-M overexpression, FIGS. 6B and 6C",abolish the neuroprotection
same,protection of mouse primary cortical neurons from apoptosis,"[1]; apoptosis induced by NMDA and glutamate, FIG. 6A",protect
same,NADPH oxidation / NADPH/NADP ratio,[2],prevented; also recorded: restore NADPH/NADP ratio
same,improvement in rota-rod test performance (latency to fall),[3],~50%
same,loss of perinuclear mitochondria,[4],rectified the loss of perinuclear mitochondria
same,antiviral activity (anti-HA immunostain),influenza A H1N1 in MDCK,demonstrate antiviral activity
